# Data: US11497796B2, “Agents directed against a cis RGMa/neogenin interaction or lipid rafts and use of the same in methods of treatment” (UNIVERSITY HEALTH NETWORK, priority 2013, dated 2022)
# B1: 4Ig: four immunoglobulin-like domains of Neogenin, amino acids 1 to 383 of Accession No. AAC59662 (SEQ ID NO:1) (protein, listed as Gallus gallus)
# chain: RSGPRSPLTGSVVRTFTPFYFLVEPMDILSVRGASVIMNCSSYCETPPKIEWKKDGTLLNLVSDDRRQLLPDGSLLINSVVHSKHNKPDEGYYQCVATVESLGSIVSRTAKLTVAGLPRFTSQPELSSVYKGNSAILNCEVNVDLAPFVRWEQDRQPLSLDDRVFKLPSGALLIGNATDTDGGFYRCVIESGGTPKYSEEAELKILPDPEEPQSLVFVRQPSSLTKVTGQNAVFPCVAGGFPTPYVRWTKNGEELITEDSERFALRAGGSLLISDVTEEDVGTYTCIADNENETIEAQAELAVQVPPEFLKRPANIYAHESMDIVFECEVTGKPTPTVKWVKNGDVVIPSDYFKIVKEHNLQVLGLVKSDEGFYQCIAENDVGNAQAGAQLIILDLDVAIPTLPPTSLTSATNDHLAPATTGPLPTAPRDVVATLVSTRFIRLTWRTPVSDPQGDNLTYSIFYTKEGINRERVENTSRPGETQVMIQNLMPETVYVFRVVAQNKHGHGESSAPLKVATQPEVQLPGPAPNIRAYAGSPTSVTVTWETPLSGNGEIQNYKLYYMEKGQDSEQDVDVAGLSYTITGLKKYTEYSFRVVAYNKHGPGVSTQDVVVRTLSDVPSAAPQNLTLEARNSKSIMLHWQPPPAGTHSGQITGYKIRYRKVSRKSDVTESVGGTQLFQLIEGLERGTEYNFRIAAMTVNGTGPATDWVSAETFESDLDESRVPEVPSSLHVRPLVTSIVVSWTPPENQNIVVRGYAIGYGIGSPHAQTIKVDYKQRYYTIENLDPSSHYVITLKAFNNVGEGIPLYESAVTRPHSDTSEVDLFVINAPYTPVPDPSPMMPPVGVQASILSHDTIRITWADNSLPKNQKITDARYYTVRWKTNIPANTKYKTANATTLSYLVTGLKPNTLYEFSVMVTKGRRSSTWSMTAHGTTFELVPTSPPKDVTVVSKEGKPRTIIVNWQPPSEANGKITGYIIYYSTDVNAEIHDWVIEPVVGNRLTHQIQELTLDTPYYFKIQARNSKGMGPMSEAVQFRTPKAESSDKMPNDQASGSAGKGSRPVDVGPDYKPPLSGSNSPHGSPTSPLDSNMLLVIIVSVGVITIVIVVIVAVFCTRRTTSHQKKKRAACKSVNGSHKYKGNSKDVKPPDLWIHHERLELKPIDKSPDPNPIMTDTPIPRNSQDITPVDNSMDSNIHQRRNSYRGHESEDSMSTLAGRRGMRPKMMMPFDSQPPQPVISAHPIHSLDNPHHHFHSGSLASPTRSYLHHQVSPWPVGTSMSHSDRANSTESVRNTPSSDTMPASSSQPCADHQDPDSSSGAYLGSAQEEDAAQSLPTAHVRPSHPLKSFAVPAVPAAGSAYDPTLPSTPLLTQQAPSHPVHSVKTASIGTLGRTRPPMPVVVPSAPDVQETTRMLEDSESSYEPDELTKEMAHLEGLMKDLNAITTA
# modifications: Neogenin - Accession No. AAC59662
# How the values were obtained:
# [1] = system: retinal ganglion cells (RGCs); assay: RGC survival in vivo 14 days after axotomy; parameters: species or system rat; conditions: for increase of RGC survival vs. control / RGC survival: injected intra-ocularly, 14 days after axotomy; for RGC survival: control 361±19
# [2] = system: temporal retinal explants (axonal outgrowth); assay: Retinal explants outgrowth assay; format: cell-based, chick; conditions: for outgrowth of retinal explants grown on RGMa proteins, peptide added to medium: 5 μg/ml in the medium
# Description: Poly-L-Lysine (SIGMA; 10 μg/ml) coated glass coverslips were treated with Laminin (Invitrogen; 10 μg/ml) and RGMa proteins (5 μg/ml) and incubated for 3 hours at room temperature. Temporal retinal explants were cultured on protein-coated surfaces for 18 hours. To disrupt the lipid rafts, explants were pretreated with 10 mM methyl-β-cyclodextrin (MβCD) for 12 minutes or 2 U/ml cholesterol oxidase (CO) for 1 hour at 37° C. Explants were then fixed with 4% paraformaldehyde (PFA) and stained with Alexa488-phalloidin. Fiber length was quantified using Image Pro 5.0. For immunolocalization, explants were treated with Cholera Toxin B-FITC (C1655; Sigma; 10 mg/mL) and patched, fixed and stained with Neogenin antibody. Retinal ganglion cells (RGCs) were electroporated with RGMa-His and cultured for 18 hours. The cells were fixed and stained with Neogenin and His-tag antibodies.
# Retinal explants outgrowth assay. Poly-L-Lysine (PLL; SIGMA; 10 μg/ml) coated glass coverslips were treated with Laminin (10 μg/ml; Invitrogen) and RGMa proteins (5 μg) and incubated for 3 hrs at room temperature. PLL treated coverslips were coated with myelin overnight (6 μg/cm2), followed by coating with Laminin. Temporal retinal explants were cultured on either myelin or protein-coated surfaces in DMEM F-12 media (2% chick serum, 10% FBS) for 18 h. To disrupt rafts, explants were pre-treated with 10 mM MβCD for 12 min or 2 U/ml CO for 1 h at 37° C., washed, and cultured on protein coated coverslips. Explants were then fixed with 4% PFA and stained with Alexa488-fluor-phalloidin (1:50; Molecular Probes). Fiber length was quantified using Image Pro 5.0.
# Statistical analysis of retinal outgrowth assays was performed using Student's two-tail t-test using Excel (Microsoft). Results were expressed as the mean±SEM (n=at least 3 independent experiments; 2 duplicates per independent experiment, >10 explants per duplicate).
# [3] = system: Neogenin association with lipid rafts; assay: Lipid raft fractionation of injected chick brain/tecta; format: in vivo; conditions: injected into chick brain/optic tectum one day before fractionation
# Description: Injected chick E8 tecta (4Ig, 2 mg/mL; N-raft, 1 mg/mL; methyl-β-cyclodextrin (10 mM)) or transfected cells (Neogenin and RGMa) were collected 24 hours later, lysed and placed at the bottom of a sucrose density gradient (0.9-0.8-0.75-0.7-0.6-0.5-0.4-0.2 M) and centrifuged at 38,000 rpm for 16 hours in SW 60 rotor (Beckman Instruments Inc.).
# Proteins (4Ig, 2 mg/ml; N-Raft, 1 mg/mL; RGMaΔ, 5 mg/ml; methyl-β-cyclodextrin (10 mM)) were injected in chick E8 optic tectum and tecta were collected 24 hrs later. HEK cells were transfected with Neogenin and different RGMa constructs and collected 48 hrs later. For treatment with RGMaΔ, Neogenin transfected cells were treated with RGMaΔ (2 mg/ml) and BMP-2 (100 nM) and further incubated for 1 hr at 37° C. Tecta (3 tecta for each set of experiment) and/or cells were solubilized in chilled buffer (25 mM Tris-HCl, pH 7.4, 150 mM NaCl, 5 mM EDTA and protease inhibitor cocktail) and passed through G25 and G30 needles, respectively, and centrifuged at 800 g for 10 min at 4° C. Cold Triton X-100 was added to the post nuclear supernatant to a final concentration of 1% and incubated on ice for 1 hour. 2× volume of 2M sucrose was added and sample placed at the bottom of a sucrose density gradient (0.9-0.8-0.75-0.7-0.6-0.5-0.4-0.2 M) and centrifuged at 38,000 rpm for 16 hours in SW 60 rotor (Beckman Instruments Inc.). 400 μl fractions were collected from top (top numbered 1 and next eight fractions numbered consequently) and stored at −80° C.
# As such, it was examined if overexpressing recombinant 4Ig and N-Raft competed with the endogenous 4Ig and N-Raft domains to displace Neogenin from the lipid raft fractions to the non-lipid raft fractions. Specifically, N-Raft, 4Ig-domain, or a control peptide, which was amino acid residues 50-99 of RGMa (also referred to herein as “N-RGMa^50-99”), was injected into the optic tectum at E8. The tecta were collected a day later for fractionation-analyses.
# [4] = system: retinal ganglion cells (RGCs); assay: Retinal organotypic cultures (whole mounts), propidium iodide cell death; format: cell-based; conditions: for reduction of cell death (relative PI intensity): agent in the medium
# Description: (A) HEK293 cells that stably express RGMa (FIG. 11) were transfected with empty plasmid (Ctrl) or Neogenin (Neo). Neogenin induced cell death (arrows) when compared to control. (B) Quantification of cell death in Neogenin-transfected cells that were incubated in BSA (Neo+Ctrl), 4Ig (1 μg/ml), N-Raft (1 μg/ml), Noggin (100 nM), or MβCD (10 mM). […] Data were average±SEM (n=3 independent experiments), *p<0.0001. (C) Representative images and (D) Quantification of cell death in chick E5 tecta electroporated with GFP- and a Neogenin-expression plasmid and then injected with N-RGMa50-99 (Ctrl; 1 μg/ml), 4Ig (1 μg/ml), or N-Raft (1 μg/ml) and subjected to TUNEL assay. […] Data were an average±SEM from 3 different tecta/conditions (*p<0.001). Bar, 100 μm. (E) Representative images and (F) Quantification of retinal whole mounts incubated for 4 days with control peptide (1 μg/ml), 4Ig (1 μg/ml), N-Raft (1 μg/ml), or MβCD (10 mM) and dead cells were stained with Propidium Iodide (PI). Images from 9 whole mounts per condition from 3 independent experiments were taken at the same intensities and the fluorescence measured using ImageJ. […] Bar, 500 μm. (G) Fluorescence micrographs of flat-mounted retinas depicting Fluorogold-labeled retinal ganglion cells (RGCs) in injured retinas at 14 days following axotomy. Control retinas (Ctrl) had few surviving RGCs. 4Ig, N-raft or MβCD increased cell survival. Bar, 200 μm. (H) Representations of the retinal areas selected in our analyses. […] Data were average±SEM (n=6 eyes), *p<0.01.
# For this study, retinal organotypic cultures were used, in which axotomy of retinal ganglion cells (RGCs) deprived the cells of tropic factors and induced apoptosis. Cell death was detected using propidium iodide (PI) and all images were taken at the same intensity with the RGC-layer in focus. Cell death was gauged by measuring the relative PI intensity of whole mounts.
Molecule,"increase of RGC survival ([1]; systemic application (intraperitoneal, IP))",axonal outgrowth on RGMa proteins after lipid raft disruption ([2]; 10 mM MβCD or 2 U/ml of CO),Neogenin localization in membrane fractions [3],enhancement of cell survival vs. control ([4]; perturbing lipid rafts),increase of RGC survival vs. control [1],RGC survival [1] [cells/mm^2],"outgrowth of retinal explants grown on RGMa proteins, peptide added to medium [2]",effect on axonal outgrowth when provided as growth substrate (in trans) ([2]; protein as substrate),reduction of cell death (relative PI intensity) [4]
"methyl-β-cyclodextrin [MβCD, reference compound]",about 2 fold,restored to control values,recovered in the non-lipid raft fraction,about 50%,,,,,
N-Raft: peptide spanning amino acids 28-73 of RGMa (SEQ ID NO:2) (SPCKILKCNSEFWAATSGSHHLGAEETPEFCTALRAYAHCTRRTAR; N-Raft - amino acids 28-73 of RGMa),,,relocalized from the lipid raft fractions to the heavy fractions,,about 2 fold,652±24,restored outgrowth,no effect,about 40%
B1,,,relocalized from the lipid raft fractions to the heavy fractions,,about 2 fold,682±21,restored outgrowth,,about 40%
